Assay results reported in US20080032998A1, “Pyrazolopyrimidines, a process for their preparation and their use as medicine” (MERZ PHARMA GMBH & CO. KGAA, priority 2006, published 2008).

Key:
[1] = molecular target: T1, transmembrane allosteric modulatory sites of mGluR5 receptors in cortical membranes (Rattus norvegicus, UniProt P31424); assay: [3H]-MPEP binding assay in rat cortical membranes; details: [3H]-MPEP 5 nM, read-out: mGluR5_MPEP rCTX_IC50
T1 construct: from tissue; host or cells: rat brain cortex membranes (male Sprague-Dawley)
Procedure: Male Sprague-Dawley rats (200-250 g) are decapitated and their brains are removed rapidly. The cortex is dissected and homogenized in 20 volumes of ice-cold 0.32 M sucrose using a glass-Teflon homogenizer. The homogenate is centrifuged at 1000×g for 10 minutes. The pellet is discarded and the supernatant centrifuged at 20,000×g for 20 minutes. The resulting pellet is re-suspended in 20 volumes of distilled water and centrifuged for 20 minutes at 8000×g. Then the supernatant and the buffy coat are centrifuged at 48,000×g for 20 minutes in the presence of 50 mM Tris-HCl, pH 8.0. The pellet is then re-suspended and centrifuged two to three more times at 48,000×g for 20 minutes in the presence of 50 mM Tris-HCl, pH 8.0. All centrifugation steps are carried out at 4° C. After resuspension in 5 volumes of 50 mM Tris-HCl, pH 8.0 the membrane suspension is frozen rapidly at −80° C. […]
Alternatively, assays are performed with [^3H]-MMPEP (2-(3-methoxyphenylethynyl)-6-methylpyridine hydrochloride) as radioligand. […] Following separation and rinse, the filters are placed into scintillation liquid (5 ml Ultima Gold, Perkin Elmer, Germany) and radioactivity retained on the filters is determined with a conventional liquid scintillation counter (Canberra Packard, Germany).

[2] = molecular target: T2, metabotropic glutamate receptor (mGluR5) (Homo sapiens, UniProt P41594); assay: Cytosolic calcium studies with stably transfected cells (FLIPR); type: cell-based; design: expressed in transfected cells; host or cells: CHO-K1 cells (IPTG-inducible expression); details: CHO-K1 cells with human mGluR5, agonist L-quisqualic acid; read-out: mGluR5_FLIPR_h_CHONAM_IC50
Procedure: Cytosolic Calcium Studies with Stably Transfected Cells
Chinese hamster ovary cells (CHO-K1 cells), stably transfected for inducible expression of a human metabotropic glutamate receptor mGluR5, are seeded into black clear bottom 96 well plates at a density of 35.000 cells per well. The standard growth medium used (Dulbecco's modified Eagle Medium, DMEM plus L-proline) contains the appropriate inducer isopropyl-β-D-thiogalactopyranosid (IPTG) to achieve optimal receptor expression. One day after seeding the growth medium is exchanged for reconstituted Ca-Kit (Molecular Devices, USA) and incubated for one hour. […] Agonistic compounds to the receptor elicit increases in cytosolic calcium which can be measured as increases in fluorescence signals by use of a fluorescence imaging plate reader (Molecular Devices).
(§1) The fluorescence signal increase after addition of agonist reflects the increase of cytosolic calcium. […] The mean of replicated temporal data (n=3-5) is calculated and used for graphical representation. For the evaluation of the pharmacology, the calcium changes in response to different concentrations of agonist or antagonist are determined using a maximum minus minimum (MaxMin) calculation.
All responses (RFU-values) are determined as percentage of control (=maximum response). […]

[3] = molecular target: T3, mGluR5 receptors (Rattus norvegicus, UniProt P31424); assay: Cytosolic calcium studies with astrocytes (astrocyte culture test, FLIPR); type: cell-based; details: rat primary astrocytes, L-quisqualate 100 nM; read-out: mGluR5_FLIPR_r_rpA IC50
T3 construct: endogenous in cells; host or cells: primary astrocytes from neocortex of Sprague-Dawley rat pups
Procedure: Primary astrocyte cultures are prepared from cortices of newborn rats as described by Booher and Sensenbrenner (1972, Neurobiology 2(3):97-105). Briefly, Sprague-Dawley rat pups (2-4 d old) are decapitated and neocortices are dissected, disintegrated with a nylon filter (pore size 80 μm) and carefully triturated. […]
The increase of cytosolic calcium after stimulation with the mGluR5 agonist L-quisqualate is measured using a fluorometric imaging plate reader (FLIPR) and the Ca-Kit (both Molecular Devices). […] Subsequently, plates are transferred to FLIPR to detect calcium increase with the addition of L-quisqualate (100 nM) measured as relative fluorescence units (RFU). […]
as §1
All responses (RFU-values) are determined as percentage of control (=maximum response). EC50 and IC50 are calculated according the logistic equation using GraFit 5.0 (Erithacus Software, GB) or Prism 4.0 (GraphPad Software, USA).

[4] = molecular target: T2, metabotropic glutamate receptor (mGluR5); assay: Activity as mGluR5 modulator (prior-art compounds, method not given)

T2 sequence (P41594 21-1212): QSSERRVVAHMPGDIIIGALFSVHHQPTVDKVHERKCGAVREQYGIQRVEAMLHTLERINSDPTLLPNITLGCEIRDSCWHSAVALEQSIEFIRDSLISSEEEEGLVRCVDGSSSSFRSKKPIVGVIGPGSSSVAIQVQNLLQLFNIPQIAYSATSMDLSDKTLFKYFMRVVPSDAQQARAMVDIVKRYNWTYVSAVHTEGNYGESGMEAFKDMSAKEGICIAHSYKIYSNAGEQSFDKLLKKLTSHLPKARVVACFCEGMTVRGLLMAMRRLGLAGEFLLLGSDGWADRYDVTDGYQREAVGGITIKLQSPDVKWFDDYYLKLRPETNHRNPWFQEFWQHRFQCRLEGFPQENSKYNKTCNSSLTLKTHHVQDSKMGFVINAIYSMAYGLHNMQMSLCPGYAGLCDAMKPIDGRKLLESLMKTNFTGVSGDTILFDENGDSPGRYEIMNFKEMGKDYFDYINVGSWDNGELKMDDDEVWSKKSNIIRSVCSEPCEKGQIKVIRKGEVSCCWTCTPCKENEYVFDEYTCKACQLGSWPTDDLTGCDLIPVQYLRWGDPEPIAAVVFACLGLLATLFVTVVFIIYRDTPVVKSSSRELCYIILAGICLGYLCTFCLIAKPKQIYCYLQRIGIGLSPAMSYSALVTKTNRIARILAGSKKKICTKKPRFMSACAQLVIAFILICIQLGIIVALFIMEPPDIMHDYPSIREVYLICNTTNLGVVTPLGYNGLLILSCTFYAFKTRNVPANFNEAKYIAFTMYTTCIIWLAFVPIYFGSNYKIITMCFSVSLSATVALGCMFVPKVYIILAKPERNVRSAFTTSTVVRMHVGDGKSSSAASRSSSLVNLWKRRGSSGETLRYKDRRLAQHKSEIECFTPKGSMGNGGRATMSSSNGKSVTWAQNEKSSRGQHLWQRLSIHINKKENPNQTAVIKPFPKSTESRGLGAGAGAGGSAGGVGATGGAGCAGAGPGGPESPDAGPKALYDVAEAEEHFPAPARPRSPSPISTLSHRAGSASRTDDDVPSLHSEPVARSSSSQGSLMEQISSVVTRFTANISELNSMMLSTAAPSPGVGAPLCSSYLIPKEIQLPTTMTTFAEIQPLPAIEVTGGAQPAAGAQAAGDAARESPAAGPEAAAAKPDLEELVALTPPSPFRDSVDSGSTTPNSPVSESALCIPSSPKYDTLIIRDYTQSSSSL
T1 sequence (P31424 21-1203): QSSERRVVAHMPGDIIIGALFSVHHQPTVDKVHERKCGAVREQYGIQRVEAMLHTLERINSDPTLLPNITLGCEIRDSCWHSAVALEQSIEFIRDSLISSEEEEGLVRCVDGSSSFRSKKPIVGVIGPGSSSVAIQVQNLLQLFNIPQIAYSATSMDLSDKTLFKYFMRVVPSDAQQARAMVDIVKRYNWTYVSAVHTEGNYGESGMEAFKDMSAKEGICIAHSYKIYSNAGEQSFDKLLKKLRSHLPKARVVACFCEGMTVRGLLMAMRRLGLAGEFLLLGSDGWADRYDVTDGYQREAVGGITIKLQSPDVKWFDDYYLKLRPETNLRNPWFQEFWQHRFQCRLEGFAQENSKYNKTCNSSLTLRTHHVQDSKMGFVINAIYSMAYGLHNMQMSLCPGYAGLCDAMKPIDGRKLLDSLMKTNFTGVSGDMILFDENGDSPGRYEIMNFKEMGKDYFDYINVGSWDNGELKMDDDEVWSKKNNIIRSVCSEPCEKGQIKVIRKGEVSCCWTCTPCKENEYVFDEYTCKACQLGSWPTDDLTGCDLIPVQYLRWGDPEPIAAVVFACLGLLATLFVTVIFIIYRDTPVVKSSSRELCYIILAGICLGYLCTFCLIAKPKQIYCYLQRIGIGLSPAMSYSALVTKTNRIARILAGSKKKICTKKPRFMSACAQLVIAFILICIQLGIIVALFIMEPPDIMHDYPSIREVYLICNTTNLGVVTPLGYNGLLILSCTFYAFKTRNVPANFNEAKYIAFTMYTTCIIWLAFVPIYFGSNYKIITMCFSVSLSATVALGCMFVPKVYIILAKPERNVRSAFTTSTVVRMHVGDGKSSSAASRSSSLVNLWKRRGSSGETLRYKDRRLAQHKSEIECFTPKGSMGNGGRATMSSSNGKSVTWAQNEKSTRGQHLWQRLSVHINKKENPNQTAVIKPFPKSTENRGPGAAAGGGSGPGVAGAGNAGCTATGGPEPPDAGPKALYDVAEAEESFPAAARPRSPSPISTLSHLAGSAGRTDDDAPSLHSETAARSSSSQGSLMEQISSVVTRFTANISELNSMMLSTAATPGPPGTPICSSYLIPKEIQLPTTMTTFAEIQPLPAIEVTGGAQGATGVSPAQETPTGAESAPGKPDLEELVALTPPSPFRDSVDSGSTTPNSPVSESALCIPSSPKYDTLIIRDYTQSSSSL
T3 sequence (P31424 21-1203): as above

Row | IC50 [1] [nM] | IC50 [2] [nM] | IC50 [3] [nM] | activity as metabotropic glutamate receptor (mGluR5) modulator [4] | selectivity [4] | Structure (SMILES)
1 | 250 | 493 | 80 |  |  | O=C(c1cc2ncc(Br)cn2n1)N1CC=C(c2ccccc2)CC1 [Example 1, (6-Bromo-pyrazolo[1,5-a]pyrimidin-2-yl)-(4-phenyl-3,6-dihydro-2H-pyridin-1-yl)-methanone]
2 |  |  |  | only a limited activity | not selective | O=C(c1cc2ncc(Br)cn2n1)N1CCc2ccccc2C1 [M, (6-Bromo-pyrazolo[1,5-a]pyrimidin-2-yl)-(1,2,3,4-tetrahydro-isoquinolin-2-yl)-methanon]
